Read-outs that look alike come from different tables or passages of the source.
How the values were obtained:
mushroom tyrosinase [1] = target: T1, mushroom tyrosinase (Agaricus bisporus, UniProt C7FF04); assay: Tyrosinase inhibition assay (L-DOPA oxidation, absorbance at 492 nm); type: biochemical;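 note: enzyme in phosphate buffer, compounds preincubated with enzyme, inhibition computed against blank absorbance, IC50 fitted by nonlinear regression, runs in triplicate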
mushroom tyrosinase [2] = target: T1, mushroom tyrosinase; assay: Tyrosinase inhibition kinetic analysis (Lineweaver-Burk and Dixon plots); type: biochemical; conditions: for Type of inhibition: Lineweaver-Burk plots
Procedure: The enzyme reaction kinetics of these compounds were measured by constructing Lineweaver-Burk plots of inverse velocities (1/V), contrary to the inverse of substrate concentration (1/S)[22]^,[23]. Preincubations and measurement times were performed using the same protocol as described above. The enzyme concentration (250 U/mL) was kept constant in the presence of substrate solutions (L-DOPA) between 0.25 and 2 mM in all kinetic studies. The inhibitor concentrations for all test compounds were 0, 25, and 50 µM. The inhibitory types and inhibitory constant (Ki) values were described by 1/V versus inhibitor concentration plots (Dixon plot).

[3] = substrate L-DOPA, PBS pH 6.8, 25 °C, highest tested concentration 500 µM, mean ± SD, n = 3, read-out: IC50
[4] = Dixon plot, L-DOPA 0.25-2 mM, inhibitor 0, 25, 50 µM, ± SD, triplicate, read-out: Ki
[5] = L-DOPA 0.25-2 mM, inhibitor 0, 25, 50 µM

T1 sequence (C7FF04 1-392): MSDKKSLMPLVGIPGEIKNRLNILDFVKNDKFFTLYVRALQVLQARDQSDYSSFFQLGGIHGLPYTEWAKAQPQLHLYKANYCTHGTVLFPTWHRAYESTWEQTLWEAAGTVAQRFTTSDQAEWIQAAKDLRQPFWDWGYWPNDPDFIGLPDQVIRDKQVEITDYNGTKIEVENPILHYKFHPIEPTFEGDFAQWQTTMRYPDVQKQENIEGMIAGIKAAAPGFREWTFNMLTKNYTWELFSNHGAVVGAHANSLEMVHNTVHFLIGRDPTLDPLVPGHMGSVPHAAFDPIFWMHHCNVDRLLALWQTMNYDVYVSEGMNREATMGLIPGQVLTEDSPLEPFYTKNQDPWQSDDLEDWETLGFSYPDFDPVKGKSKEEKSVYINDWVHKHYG

IC50 (mushroom tyrosinase [1]; [3]) [µM]	Compound	IC50 (mushroom tyrosinase [1]) [µM]	further results
–	O=c1cc(-c2ccc(O)c(O)c2)oc2cc(O)c([C@@H]3O[C@H](CO)[C@@H](O)[C@H](O)[C@H]3O)c(O)c12 [Compound 20, luteolin-6-C-glucoside]	133 ± 2.32	–
150 ± 1.84	COc1ccc(-c2oc3c(CC=C(C)C)c(O[C@@H]4O[C@H](CO)[C@@H](O)[C@H](O)[C@H]4O)cc(O)c3c(=O)c2O[C@@H]2O[C@@H](C)[C@H](O)[C@@H](O)[C@H]2O)cc1 [Compound 34, icariin]	–	–
> 500	COc1cc(O)c2c(=O)c(OC)c(-c3ccc(O)cc3)oc2c1 [Compound 28, kumatakenin]	–	–
–	COc1ccccc1-c1cc(=O)c2c(O)cccc2o1 [Compound 8, 5-hydroxy-2′-methoxyflavone]	122.1 ± 1.19	–
–	O=c1c(O)c(-c2cc(O)c(O)c(O)c2)oc2cc(O)cc(O)c12 [Compound 42, myricetin]	100 ± 1.86	–
–	O=c1c(-c2ccc(O)cc2)coc2cc(O)ccc12 [Compound 43, daidzein]	> 500	–
–	COc1ccc(C2CC(=O)c3c(O)cc(OC4OC(COC5OC(C)C(O)C(O)C5O)C(O)C(O)C4O)cc3O2)cc1O (stereo not drawn) [Compound 6, hesperetin 7-O-rutinoside]	131 ± 1.4	–
–	O=c1cc(-c2ccc(O)cc2)oc2cc(OC3OC(CO)C(O)C(O)C3O)cc(O)c12 (stereo not drawn) [Compound 13, apigenin 7-O-glucoside]	323.2 ± 1.48	–
270 ± 1.23	O=C(O)C1OC(Oc2c(-c3ccc(O)cc3)oc3cc(O)cc(O)c3c2=O)C(O)C(O)C1O (stereo not drawn) [Compound 30, kaempferol 3-O-glucuronide]	–	–
231.7 ± 1.17	COc1ccc(-c2oc3cc(O)cc(O)c3c(=O)c2OC)cc1 [Compound 33, ermanin]	–	–
–	O=c1c(O)c(-c2cc(O)c(O)c(O)c2)oc2cc(O)ccc12 [Compound 41, robinetin]	63.1 ± 0.85	Ki (mushroom tyrosinase [2]): 27.4 ± 0.62 µM; Type of inhibition (mushroom tyrosinase [2]; [5]): non-competitive
–	O=c1cc(-c2ccc(O)cc2)oc2c([C@@H]3O[C@H](CO)[C@@H](O)[C@H](O)[C@H]3O)c(O)cc(O)c12 [Compound 14, apigenin 8-C-glucoside]	133 ± 1.83	–
148 ± 1.57	CC1OC(OCC2OC(Oc3c(-c4ccc(O)c(O)c4)oc4cc(OC5OC(CO)C(O)C(O)C5O)cc(O)c4c3=O)C(O)C(O)C2O)C(O)C(O)C1O (stereo not drawn) [Compound 38, quercetin 3-O-rutinoside-7-O-glucoside]	–	–
58.9 ± 0.78	O=c1cc(-c2ccc(O)c(O)c2)oc2cc(O)cc(O)c12 [Compound 17, luteolin]	–	Ki (mushroom tyrosinase [2]; [4]): 11.3 ± 0.77 µM; Type of inhibition (mushroom tyrosinase [2]; [5]): non-competitive
–	O=c1cc(-c2ccc(O)c(O)c2)oc2cc(OC3OC(CO)C(O)C(O)C3O)cc(O)c12 (stereo not drawn) [Compound 18, luteolin 7-O-glucoside]	415 ± 2.38	–
–	O=c1c(OC2OC(CO)C(O)C(O)C2O)c(-c2ccc(O)cc2)oc2cc(O)cc(O)c12 (stereo not drawn) [Compound 31, kaempferol 3-O-galactoside]	186.9 ± 1.09	–

IC50 (mushroom tyrosinase [1]; [3]) [µM]	Compound	IC50 (mushroom tyrosinase [1]) [µM]	further results
–	COc1ccc([C@@H]2CC(=O)c3c(O)cc(O)cc3O2)cc1O [Compound 5, hesperetin]	237 ± 2.63	–
–	O=c1cc(-c2ccccc2)oc2cc(O)cc(O)c12 [Compound 11, chrysin]	129.4 ± 1.13	–
–	COc1cccc(OC)c1-c1cc(=O)c2c(O)cccc2o1 [Compound 9, 5-hydroxy-2′,6′-dimethoxyflavone]	127 ± 1.4	–
–	COc1ccc(C2CC(=O)c3c(O)cc(OC)cc3O2)cc1 (stereo not drawn) [Compound 2, 7,4′-dimethoxynaringenin]	> 500	–
–	O=c1cc(-c2ccc(O)cc2)oc2cc(O)cc(O)c12 [Compound 12, apigenin]	160.5 ± 1.44	–
–	O=c1c(-c2ccc(O)cc2)coc2cc(O)cc(O)c12 [Compound 44, genistein]	> 500	–
–	O=C(/C=C/c1ccc(O)cc1)OC[C@H]1O[C@@H](Oc2c(-c3ccc(O)cc3)oc3cc(O)cc(O)c3c2=O)[C@H](O)[C@@H](O)[C@@H]1O [Compound 32, kaempferol 3-O-(6″-O-trans-p-coumaroyl)-glucoside]	78.5 ± 0.84	Ki (mushroom tyrosinase [2]): 9.83 ± 0.57 µM; Type of inhibition (mushroom tyrosinase [2]; [5]): competitive
–	O=c1cc(-c2ccccc2)oc2cccc(O)c12 [Compound 7, 5-hydroxyflavone]	120 ± 1.48	–
290.5 ± 1.19	COc1c(O)cc(O)c2c(=O)c(O)c(-c3ccc(O)cc3)oc12 [Compound 27, 8-methoxykaempferol]	–	–
> 500	COc1ccc(-c2cc(=O)c3c(O)cc(O)c(C4OC[C@@H](O)[C@H](O)[C@H]4OC4O[C@H](CO)[C@@H](O)[C@H](O)[C@H]4O)c3o2)cc1O (stereo partly drawn) [Compound 22, 5,7,3′-trihydroxy-4′-methoxyflavone-8-C-xylopyranoside-2"-O-glucoside]	–	–
–	O=c1c(O)c(-c2ccc(O)c(O)c2)oc2cc(O)cc(O)c12 [Compound 35, quercetin]	–	Type of inhibition (mushroom tyrosinase [2]; [5]): competitive
–	COc1ccc(-c2cc(=O)c3c(O)cc(O)cc3o2)cc1 [Compound 16, acacetin]	207.9 ± 1.35	–
–	C[C@@H]1O[C@@H](OC[C@H]2O[C@@H](Oc3c(-c4ccc(O)c(O)c4)oc4cc(O)cc(O)c4c3=O)[C@H](O)[C@@H](O)[C@@H]2O)[C@H](O)[C@H](O)[C@H]1O [Compound 37, quercetin 3-O-rutinoside]	141.7 ± 1.3	–
–	O=C(O)C1OC(Oc2c(-c3ccc(O)c(O)c3)oc3cc(O)cc(O)c3c2=O)C(O)C(O)C1O (stereo not drawn) [Compound 36, quercetin 3-O-glucuronide]	220.1 ± 1.14	–
–	O=c1c(O[C@@H]2O[C@H](CO)[C@@H](O)[C@H](O)[C@H]2O)c(-c2ccc(O)cc2)oc2cc(O)cc(O)c12 [Compound 29, kaempferol 3-O-glucoside]	481.5 ± 1.73	–

Compound	IC50 (mushroom tyrosinase [1]; [3]) [µM]	IC50 (mushroom tyrosinase [1]) [µM]	further results
O=C1CC(c2ccc(O)c(O)c2)Oc2c1ccc(O)c2O (stereo not drawn) [Compound 4, isookanin]	58.43 ± 0.38	–	Ki (mushroom tyrosinase [2]; [4]): 18.6 ± 0.53 µM; Type of inhibition (mushroom tyrosinase [2]; [5]): non-competitive
O=c1c(O)c(-c2ccc(O)cc2)oc2cc(O)cc(O)c12 [Compound 26, kaempferol]	65.1 ± 1.09	–	Ki (mushroom tyrosinase [2]; [4]): 40.2 ± 0.46 µM; Type of inhibition (mushroom tyrosinase [2]; [5]): competitive
CC(=O)Oc1ccc(-c2cc(=O)c3c(O)cc(O)c(C4OC[C@@H](O)[C@H](O)[C@H]4OC4O[C@H](CO)[C@@H](O)[C@H](O)[C@H]4O)c3o2)cc1O (stereo partly drawn) [Compound 23, 5,7,3′-trihydroxy-4′-acetoxyflavone-8-C-xylopyranoside-2"-O-glucoside]	> 500	–	–
COc1cc(-c2cc(=O)c3c(O)cc(O)c(C4OC[C@@H](O)[C@H](O)[C@H]4OC4O[C@H](CO)[C@@H](OC(C)=O)[C@H](O)[C@H]4O)c3o2)ccc1OC(C)=O (stereo partly drawn) [Compound 25, 5,7-dihydroxy-3′-methoxy-4′-acetoxyflavone-8-C-xylopyranoside-2"-O-(4′"-acetoxy)-glucoside]	> 500	–	–

From PMC8735877, “Flavonoids as tyrosinase inhibitors in in silico and in vitro models: basic framework of SAR using a statistical modelling approach” (Journal of Enzyme Inhibition and Medicinal Chemistry, 2021)
